Reference: patent US20240190828A1, “Small Molecule Inhibitors of PBRM1-BD2” (The Medical College of Wisconsin, Inc., priority 2021, published 2024)
Where two headings read alike, the source gives them in different places.

Experiments:
PBRM1-BD5 [1] = molecular target: T1, PBRM1-BD5 (Homo sapiens (Human), UniProt Q86U86); details: DSF
BRDT-BD1 = BRDT-BD1 (Homo sapiens (Human), UniProt Q58F21); test: DSF selectivity profiling; type: binding
Protocol: (§1) Differential Scanning Fluorimetry (DSF). Bromodomain DSF Tm assays were performed using an Mx3005P (Stratagene) PCR detection system and low profile 96-well PCR plates (UltraFlux, Flat Top, SSI 3400-00S). […] The temperature was raised by 1° C./min from 25-95° C., and fluorescence readings were taken at each interval. Melting curves were analyzed using our online interactive fitting tool for thermofluor experiments (https://dsf-analysis.herokuapp.com/DSF-analysis) and plotted using GraphPad Prism.

BRD4-BD2 = BRD4-BD2 (Homo sapiens (Human), UniProt O60885); test: DSF selectivity profiling; type: binding
Protocol: as §1

BRD4-BD1 = BRD4-BD1 (Homo sapiens (Human), UniProt O60885); test: DSF selectivity profiling; type: binding
Protocol: as §1

SMARCA4 = SMARCA4 (Homo sapiens (Human), UniProt P51532); test: DSF selectivity profiling; type: binding
Chain of SMARCA4 (P51532 1453-1564): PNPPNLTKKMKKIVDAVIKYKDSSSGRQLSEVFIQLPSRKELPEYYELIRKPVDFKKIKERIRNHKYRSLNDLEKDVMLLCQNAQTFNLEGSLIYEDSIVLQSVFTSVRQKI
Protocol: as §1

SMARCA2 = SMARCA2 (Homo sapiens (Human), UniProt P51531); test: DSF selectivity profiling; type: binding
Chain of SMARCA2 (P51531 1378-1506): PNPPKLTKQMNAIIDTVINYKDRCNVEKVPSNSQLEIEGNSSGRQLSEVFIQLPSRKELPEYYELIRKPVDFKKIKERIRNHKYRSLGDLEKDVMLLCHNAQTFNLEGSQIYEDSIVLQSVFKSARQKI
Protocol: as §1

ASH1L = ASH1L (Homo sapiens (Human), UniProt Q9NR48); test: DSF selectivity profiling; type: binding
Protocol: as §1

BRD3-BD2 = BRD3-BD2 (Homo sapiens (Human), UniProt Q15059); test: DSF selectivity profiling; type: binding
Chain of BRD3-BD2 (Q15059 306-415): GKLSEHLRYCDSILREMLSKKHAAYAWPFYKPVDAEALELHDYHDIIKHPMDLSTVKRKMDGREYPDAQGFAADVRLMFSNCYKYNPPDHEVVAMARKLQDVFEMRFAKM
Protocol: as §1

CREBBP = CREBBP (Homo sapiens (Human), UniProt Q92793); test: DSF selectivity profiling; type: binding
Chain of CREBBP (Q92793 1085-1192): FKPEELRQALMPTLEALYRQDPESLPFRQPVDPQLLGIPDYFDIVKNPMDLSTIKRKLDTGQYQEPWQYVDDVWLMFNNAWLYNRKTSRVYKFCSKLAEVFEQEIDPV
Protocol: as §1

PBRM1-BD4 = PBRM1-BD4 (Homo sapiens (Human), UniProt Q86U86); test: DSF selectivity profiling; type: binding
Chain of PBRM1-BD4 (Q86U86 518-625): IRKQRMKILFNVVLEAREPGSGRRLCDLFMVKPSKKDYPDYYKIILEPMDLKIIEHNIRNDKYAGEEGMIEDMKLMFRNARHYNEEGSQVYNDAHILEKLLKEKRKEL
Protocol: as §1

CECR2 = CECR2 (Homo sapiens (Human), UniProt Q9BXF3); test: DSF selectivity profiling; type: binding
Chain of CECR2 (Q9BXF3 434-538): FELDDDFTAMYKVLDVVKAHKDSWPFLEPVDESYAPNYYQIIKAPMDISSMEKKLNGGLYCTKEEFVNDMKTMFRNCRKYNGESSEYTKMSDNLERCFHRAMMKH
Protocol: as §1

PBRM1-BD6 = PBRM1-BD6 (Homo sapiens (Human), UniProt Q86U86); test: DSF selectivity profiling; type: binding
Chain of PBRM1-BD6 (Q86U86 769-879): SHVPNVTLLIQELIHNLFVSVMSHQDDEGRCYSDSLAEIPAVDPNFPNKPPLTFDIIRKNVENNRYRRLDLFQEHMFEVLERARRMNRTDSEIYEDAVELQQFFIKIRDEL
Protocol: as §1

BRD7 = BRD7 (Homo sapiens (Human), UniProt Q9NPI1); test: DSF selectivity profiling; type: binding
Chain of BRD7 (Q9NPI1 131-235): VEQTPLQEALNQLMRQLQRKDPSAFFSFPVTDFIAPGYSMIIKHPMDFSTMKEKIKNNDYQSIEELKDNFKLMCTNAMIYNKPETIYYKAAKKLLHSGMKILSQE
Protocol: as §1

PBRM1-BD1 = PBRM1-BD1 (Homo sapiens (Human), UniProt Q86U86); test: DSF selectivity profiling; type: binding
Chain of PBRM1-BD1 (Q86U86 41-151): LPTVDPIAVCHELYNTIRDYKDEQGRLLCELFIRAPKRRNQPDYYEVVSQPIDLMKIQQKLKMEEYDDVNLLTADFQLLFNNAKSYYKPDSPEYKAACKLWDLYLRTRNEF
Protocol: as §1

PBRM1-BD3 = PBRM1-BD3 (Homo sapiens (Human), UniProt Q86U86); test: DSF selectivity profiling; type: binding
Chain of PBRM1-BD3 (Q86U86 381-487): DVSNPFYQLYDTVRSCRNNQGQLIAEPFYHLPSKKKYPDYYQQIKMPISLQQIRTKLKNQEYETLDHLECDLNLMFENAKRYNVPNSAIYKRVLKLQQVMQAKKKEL
Protocol: as §1

BRD3-BD1 = BRD3-BD1 (Homo sapiens (Human), UniProt Q15059); test: DSF selectivity profiling; type: binding
Chain of BRD3-BD1 (Q15059 34-140): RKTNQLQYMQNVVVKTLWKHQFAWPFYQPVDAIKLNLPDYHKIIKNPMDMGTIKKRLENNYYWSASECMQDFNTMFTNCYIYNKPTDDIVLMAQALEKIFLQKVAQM
Protocol: as §1

TRIM33A = TRIM33A (Homo sapiens (Human), UniProt Q9UPN9); test: DSF selectivity profiling; type: binding
Chain of TRIM33A (Q9UPN9 957-1080): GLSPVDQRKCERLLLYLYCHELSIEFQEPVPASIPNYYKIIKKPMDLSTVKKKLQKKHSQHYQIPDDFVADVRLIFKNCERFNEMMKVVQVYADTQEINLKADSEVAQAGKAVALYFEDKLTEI
Protocol: as §1

PCAF = PCAF (Homo sapiens (Human), UniProt Q92831); test: DSF selectivity profiling; type: binding
Chain of PCAF (Q92831 723-827): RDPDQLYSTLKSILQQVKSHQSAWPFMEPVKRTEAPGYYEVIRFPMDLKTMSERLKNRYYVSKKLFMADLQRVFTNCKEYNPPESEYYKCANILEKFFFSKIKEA
Protocol: as §1

BRD2-BD2 = BRD2-BD2 (Homo sapiens (Human), UniProt P25440); test: DSF selectivity profiling; type: binding
Chain of BRD2-BD2 (P25440 344-453): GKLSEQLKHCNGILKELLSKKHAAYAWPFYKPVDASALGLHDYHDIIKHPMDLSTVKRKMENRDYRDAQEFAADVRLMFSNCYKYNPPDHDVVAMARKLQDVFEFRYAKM
Protocol: as §1

p300 = p300 (Homo sapiens (Human), UniProt Q09472); test: DSF selectivity profiling; type: binding
Chain of p300 (Q09472 1049-1156): as the sequence (Q92793 1085-1192) above, with N47S, V73I, F93Y, A98S counted along it
Protocol: as §1

PBRM1-BD2 [2] = molecular target: T2, PBRM1-BD2 (Homo sapiens (Human), UniProt Q86U86); test: biochemical; type: binding; details: for ΔTm at 100 µM: read-out: PBRM1-BD2 ΔTm, DSF, 10 μM protein, 100 μM inhibitor, vs apoprotein
T2 sequence (Q86U86 177-287): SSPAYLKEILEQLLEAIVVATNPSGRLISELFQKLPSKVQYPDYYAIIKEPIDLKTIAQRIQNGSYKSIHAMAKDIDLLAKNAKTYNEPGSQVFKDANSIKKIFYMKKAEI
Protocol: DSF measures protein unfolding by monitoring the fluorescence of the SYPRO Orange dye as a function of temperature; positive thermal shifts indicate ligand binding induced stabilization of the protein.
as §1

PBRM1-BD5 [3] = molecular target: T1, PBRM1-BD5; details: read-out: Kd PBRM1-BD5; ITC; NB = did not bind
Protocol: (§2) Binding affinities of inhibitors towards PBRM1-BD2, PBRM1-BD5, SMARCA2, SMARCA4, and ASH1L were determined using a VP-ITC instrument (MicroCal). […] Protein concentrations were determined via the method of Bradford.^1 The buffer used for all ITC experiments consisted of 50 mM HEPES (pH 7.5 at 20° C.), 500 mM NaCl, 5% v/v glycerol, and 1% v/v DMSO; except for experiments involving PBRM1-BD2 whose buffer consisted of 100 mM Na2PO4 (pH 7.5 at 20° C.), 100 mM NaCl, 5% v/v glycerol, and 1% v/v DMSO. Kd values were determined by least-squares fitting to the raw data using Origin (OriginLab).

PBRM1-BD2 [4] = molecular target: T2, PBRM1-BD2; test: AlphaScreen competition assay, His6-tagged PBRM1-BD2 and biotinylated H3K14ac peptide; type: binding; details: 0.2 μM His6-PBRM1-BD2, 0.1 μM biotinylated H3K14ac peptide
PBRM1-BD2 [5] = molecular target: T2, PBRM1-BD2; details: read-out: Kd PBRM1-BD2; ITC; NB = did not bind (heat below 0.1 μcal per second)
Protocol: as §2

PBRM1-BD2 [6] = molecular target: T2, PBRM1-BD2; test: biochemical; type: binding
Protocol: Protein-detected NMR-based fragment screening has the advantage of providing information about both binding affinity and the amino acid residues involved in binding.
NMR spectroscopy. Automated NMR data collection was performed on ^15N-labeled PBRM1-BD2 (50 μM) by using ^1H,^15N SOFAST-HMQC experiments. […] The total time for screening 85 or 82 samples each containing 12 fragments or DMSO by ^1H,^15N SOFAST-HMQC was 46 h (˜32 min/sample). […] All NMR data were processed using NMRPipe^4 in NMRbox.^5 Spectra were processed by using in-house automated Python scripts in NMRPipe,^4 and chemical shifts perturbation were analyzed using SPARKY.^6 Total ^1H/^15N chemical shift perturbations and equilibrium dissociation constants (Kd) were calculated as reported.^2

PC3 cells = test: Cell viability assay (CellTiter-Glo); type: cell-based, human; details: 10, 1 and 0.1 μM
Protocol: Cell Viability Assays. Cells were seeded in a 96-well plate and incubated for 12-24 h prior to initial treatment. The number of cells per well was chosen empirically based on cell growth rates (LNCaP-5,000 cells/well, PC3 and RWPE-1-3,000 cells per well, HEK293T-1,000 cells/well). Cells were treated with either DMSO control or serial dilutions of inhibitors and media with compound was refreshed every 48 h.

T1 sequence (Q86U86 653-763): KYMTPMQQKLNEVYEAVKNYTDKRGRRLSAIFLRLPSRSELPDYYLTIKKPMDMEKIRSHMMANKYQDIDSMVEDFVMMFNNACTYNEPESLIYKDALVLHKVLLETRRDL

For `CN(C)/C=C1\CCn2c1nc(=O)c1c(Cl)cccc12` [Compound 2, (E)-6-Chloro-3-((dimethylamino)methylene)-2,3-dihydropyrrolo[1,2-a]quinazolin-5(1H)-one, reference compound], the “PBRM1-BD5 ΔTm” value (PBRM1-BD5 [1]) was 7.7 °C, the “BRDT-BD1 ΔTm” value (BRDT-BD1) was −0.1 °C and the “BRD4-BD2 ΔTm” value (BRD4-BD2) was −0.6 °C. The “BRD4-BD1 ΔTm” value (BRD4-BD1) was 0.1 °C, the “SMARCA4 ΔTm” value (SMARCA4) was 2 °C and the “SMARCA2 ΔTm” value (SMARCA2) was 2.2 °C. The “ASH1L ΔTm” value (ASH1L) was −0.7 °C, the “BRD3-BD2 ΔTm” value (BRD3-BD2) was 0.5 °C and the “CREBBP ΔTm” value (CREBBP) was 0.1 °C. For the same compound, the “PBRM1-BD4 ΔTm” value (PBRM1-BD4) was 0.3 °C, the “CECR2 ΔTm” value (CECR2) was 2.0 °C and the “PBRM1-BD6 ΔTm” value (PBRM1-BD6) was −1.4 °C. The “BRD7 ΔTm” value (BRD7) was 1.2 °C, the “PBRM1-BD1 ΔTm” value (PBRM1-BD1) was −0.1 °C and the “PBRM1-BD3 ΔTm” value (PBRM1-BD3) was 2.6 °C. The “BRD3-BD1 ΔTm” value (BRD3-BD1) was 0.1 °C, the “TRIM33A ΔTm” value (TRIM33A) was −0.9 °C and the “PCAF ΔTm” value (PCAF) was −0.2 °C. For the same compound, the “BRD2-BD2 ΔTm” value (BRD2-BD2) was −0.2 °C, the “p300 ΔTm” value (p300) was −0.6 °C and the ΔTm at 100 µM (PBRM1-BD2 [2]) was 3.3 ± 0.4 °C.
`O=C1NC(c2c(F)cccc2Cl)Nc2ccccc21` (centres unmarked) [Compound 5, 2-(2-Chloro-6-fluorophenyl)-2,3-dihydroquinazolin-4(1H)-one] showed a Kd (PBRM1-BD5 [3]) of 179 µM, an IC50 (PBRM1-BD2 [4]) of 4.2 ± 1.3 µM and a Kd (PBRM1-BD2 [5]) of 18.4 µM. The ΔTm at 100 µM (PBRM1-BD2 [2]) was 1 ± 0.2 °C, the Kd (PBRM1-BD2 [6]) was 50 µM and the Kd (PBRM1-BD2 [6]; NMR titration, chemical shift perturbations vs fragment concentration, read-out: Kd) was 45.3 ± 8.1 µM.
With `NC(=S)c1ccc(F)cc1` [Compound 6h] the Kd (PBRM1-BD2 [6]; read-out: Kd) was over 2000 µM.
Work on `COc1cccc(OCC(F)(F)F)c1C#N` [Compound 6i] yielded a Kd (PBRM1-BD2 [6]; read-out: Kd) of over 2000 µM.
`N#Cc1ncccc1N1CCCCC1` [Compound 6j] showed a Kd (PBRM1-BD2 [6]; read-out: Kd) of over 2000 µM.
In the case of `CCC(/C=C1\CCn2c1nc(=O)c1c(Cl)cccc12)CC` [Compound 7, (E)-6-Chloro-3-(2-ethylbutylidene)-2,3-dihydropyrrolo[1,2-a]quinazolin-5(1H)-one, reference compound], the “PBRM1-BD5 ΔTm” value (PBRM1-BD5 [1]) is reported as 11.0 °C, the “BRDT-BD1 ΔTm” value (BRDT-BD1) is reported as −0.8 °C and the “BRD4-BD2 ΔTm” value (BRD4-BD2) is reported as −1.1 °C. For the same compound, the “BRD4-BD1 ΔTm” value (BRD4-BD1) was −0.2 °C, the “SMARCA4 ΔTm” value (SMARCA4) was 3.1 °C and the “SMARCA2 ΔTm” value (SMARCA2) was 3.0 °C. The “BRD3-BD2 ΔTm” value (BRD3-BD2) was 0.4 °C, the “CREBBP ΔTm” value (CREBBP) was −0.7 °C and the “PBRM1-BD4 ΔTm” value (PBRM1-BD4) was 3.9 °C. For the same compound, the “CECR2 ΔTm” value (CECR2) was −0.9 °C, the “PBRM1-BD6 ΔTm” value (PBRM1-BD6) was −1.5 °C and the “BRD7 ΔTm” value (BRD7) was 0.4 °C. The “PBRM1-BD1 ΔTm” value (PBRM1-BD1) was −0.9 °C, the “PBRM1-BD3 ΔTm” value (PBRM1-BD3) was 2.8 °C and the “BRD3-BD1 ΔTm” value (BRD3-BD1) was −0.3 °C. For the same compound, the “TRIM33A ΔTm” value (TRIM33A) was 0.3 °C, the “PCAF ΔTm” value (PCAF) was 0.4 °C and the “BRD2-BD2 ΔTm” value (BRD2-BD2) was 0.6 °C. For the same compound, the “p300 ΔTm” value (p300) was −0.5 °C, the “PBRM1-BD2 ΔTm” value (PBRM1-BD2 [2]; DSF, 10 μM protein, 100 μM inhibitor, vs apoprotein) was over 7.5 °C and the ΔTm at 100 µM (PBRM1-BD2 [2]) was 7.7 °C. The “growth inhibition of PC3 cells” value (PC3 cells) was “more significant inhibition of PBRM1-independent prostate cancer cell line PC3”.
In the case of `CCC(/C=C1\CCn2c1nc(=O)c1ccccc12)CC` [Compound 8, (E)-3-(2-Ethylbutylidene)-2,3-dihydropyrrolo[1,2-a]quinazolin-5(1H)-one, reference compound], the “ASH1L ΔTm” value (ASH1L) is reported as “did not show binding”.
